{
  "source": "patent EP2518139A1",
  "about": "“Use of indirubin derivatives for producing pluripotent stem cells” (Universitätsklinikum Jena, priority 2011, dated 2012)",
  "key": {"[1]": {"tested_on": "Smad1/5/8", "assay": "Immunoblot of p-Smad1/5/8 and pan-Smad1/5/8 in HeLa cells", "format": "cell-based, human"}, "[2]": {"tested_on": "mono-, di- and poly-ubiquitins", "assay": "Immunoblot of ubiquitins in HeLa cells", "format": "cell-based, human", "conditions": "BMP-stimulated HeLa, 24h; MG132 5µM, E738 (1µM)", "experimental": "Western blot:: Cell extracts were homogenized in Urea-Lysis buffer (1mM EDTA,0.5% Triton X-100), 5mM NaF, 6M Urea, 1mM Na3VO4, 10µg/mL Pepstatin, 100µM PMSF and 3µg/mL Aprotinin in PBS). Enhanced chemiluminescence (ECL) Western blot analysis was performed. 20-40µg of total protein was resolved on 10% SDS-PAGE gels and immunoblotted with specific antibodies. Primary antibodies were incubated at a 1:1,000 dilution in TBS (pH 7.5) with 0.1% Tween-20 and 5% BSA/nonfat milk with gentle agitation overnight at 4°C. The proper secondary antibodies were incubated in TBS (pH 7.5) with 5% BSA/nonfat milk and 0.1 % Tween-20 at a 1:5,000 dilution for 1 h at room temperature.\nUbiquitin-proteasome degradation system is the major route to protein degradation. To identify if indirubin-induced degradation is conducted by proteasome, we utilized MG132, a general proteasome inhibitor, to characterize the role of proteasome in degradation. We found 5µM MG132 was sufficient to rescue the E738 mediated Smad1/5/8 […] 24h after treatment (Fig. 5E and 5F). […] Thus we interpreted that E738 might be able to promote degradation of polymerased ubiquintins through activating the formation of complexes with certain substrates, speculatively like Smad1/2/3/5/8, leading to accelerate the recycling of mono-ubiquitin, while MG132 blocked the degradation of these complexes and arrest such recycling. […]"}, "[3]": {"tested_on": "BMP- and TGFß-relative R-Smads", "assay": "Immunoblot of BMP- and TGFß-relative R-Smads in HeLa cells (TGFß or FCS stimulation)", "format": "cell-based, human", "conditions": "24h, E738 (1µM), Bio (5µM), DM (1µM), Repsox (10µM); for P- and pan-Smads (R-Smads): TGFß (20ng/mL)"}, "[4]": {"tested_on": "p38", "conditions": "reported by Zhu et al.; cited from earlier work"}, "[5]": {"conditions": "BMP2 (100ng/mL), 24h, compound at 5µM"}},
  "note": "Residues, ends and D or L forms follow the SMILES beside them. *: point of attachment. Cbz = O=C(OCc1ccccc1)*",
  "data": [
    {"compound": "C[S+]([O-])c1ccc(-c2nc(-c3ccncc3)c(-c3ccc(F)cc3)[nH]2)cc1", "note": "(stereo not shown) [SB203580, reference compound]", "values": [
      {"measurement": "level of pan Smad1/5/8", "setting": "[1]; BMP, MAPK inhibitor alone or in combination with E738", "result": "neither alter the level of pan Smad1/5/8 alone, nor attenuate the E738-mediated degradation in combination with E738"}
    ]},
    {"compound": "CC(C)C[C@@H](C=O)NC(=O)[C@H](CC(C)C)NC(=O)[C@H](CC(C)C)NC(=O)OCc1ccccc1", "note": "[MG132, reference compound] (Cbz-Leu-Leu-Leu-aldehyde)", "values": [
      {"measurement": "concentration sufficient to rescue the E738 mediated Smad1/5/8 ubiquitination", "setting": "[1]; BMP, 24h after treatment", "result": 5, "unit": "µM"},
      {"measurement": "p-Smad1/5/8", "setting": "[1]; BMP, MG (5µM) with/without E738", "result": "accumulation of p-Smad1/5/8 was observed"},
      {"measurement": "mono-, di- and poly-ubiquitins", "setting": "[2]", "result": "significantly stabilized mono-, di- and poly-ubiquitins"}
    ]},
    {"compound": "[Cl-].[Li+]", "note": "[LiCl, reference compound]", "values": [
      {"measurement": "BMP activated Smad1/5/8 and level of pan Smad1/5/8", "setting": "[1]; BMP, LiCl (30mM), 24h", "result": "can attenuate BMP activated Smad1/5/8, but not change the level of pan Smad1/5/8"}
    ]},
    {"compound": "C[C@@H]1C[C@@H]([C@H](O)CC2CC(=O)NC(=O)C2)C(=O)[C@@H](C)C1", "note": "[CHX, cyclohexamide, reference compound]", "values": [
      {"measurement": "signal of Smad1/5/8", "setting": "[1]; BMP2, CHX (10µM), 24h", "result": "weaker signal of Smad1/5/8"},
      {"measurement": "influence on the E738 induced degradation of Smad1/5/8", "setting": "[1]; BMP2, mixture of E738 (1µM) and CHX 10µM, 24h", "result": "no influence on the degradation"}
    ]},
    {"compound": "O=C1Nc2cc(Br)ccc2/C1=C1/Nc2ccccc2/C1=N\\O", "note": "[BIO, 6-Bromo-indirubin-3'-oxim, reference compound]", "values": [
      {"measurement": "level of pan Smad1/5/8", "setting": "[1]; [5]", "result": "slightly decreased pan-Smad1/5/8"},
      {"measurement": "phosphorylation (activation) of Smad1/5/8", "setting": "[1]; [5]", "result": "clearly blocked the activation of Smad1/5/8"},
      {"measurement": "P- and pan-Smads (R-Smads)", "setting": "[3]", "result": "attenuated effects"}
    ]},
    {"compound": "Cc1cccc(-c2[nH]ncc2-c2ccc3ncccc3n2)n1", "note": "[Repsox]", "values": [
      {"measurement": "activation of both types of R-Smads", "setting": "[3]; FCS 10%", "result": "only partly"},
      {"measurement": "P- and pan-Smads (R-Smads)", "setting": "[3]", "result": "inhibited TGFß-mediated activation of Smad3, but not Smad1/5/8 or total R-Smads protein"}
    ]},
    {"compound": "O=C1Nc2ccccc2/C1=C1/Nc2ccccc2/C1=N\\O", "note": "[E231, Indirubin-3'-oxim]", "values": [
      {"measurement": "p-Smad1/5/8 at C-termini and pan-Smad1/5/8 levels", "setting": "[1]; BMP2 (100ng/mL), 24h, compound at 1µM", "result": "slightly decreased"},
      {"measurement": "level of pan Smad1/5/8", "setting": "[1]; [5]", "result": "induced the reduction only partly"},
      {"measurement": "phosphorylation (activation) of Smad1/5/8", "setting": "[1]; [5]", "result": "strongly blocked the phosphorylation"},
      {"measurement": "phosphorylation of p38", "setting": "[4]", "result": "can stimulate the phosphorylation of p38"}
    ]}
  ]
}
